Source: ChEMBL document CHEMBL3745604, “Synthesis, Biological Activities, and X-ray Crystal Structural Analysis of 25-Hydroxy-25(or 26)-adamantyl-17-[20(22),23-diynyl]-21-norvitamin D Compounds” (J Med Chem, 2015)
Active and inactive are the calls of the source. The rule behind the calls is not given here.

What was measured:
[1] = Drug uptake in human MG63 cells at 1 uM after 5 mins by HPLC analysis in presence of 10% FBS; assay type: ADME, cell-based; settings: mg-63, 5 min
[2] = Drug uptake in human MG63 cells at 1 uM after 10 mins by HPLC analysis in presence of 10% FBS; assay type: ADME, cell-based; settings: mg-63, 10 min
[3] = Metabolic stability in human MG63 assessed as compound metabolized at 1 uM after 24 hrs by HPLC analysis; assay type: ADME, MG-63; settings: MG63 cells, read-out: Drug metabolism
Vitamin D3 receptor [4] = biological target: T1, Vitamin D3 receptor (Homo sapiens, UniProt P11473); assay: Displacement of [3H]-1,25(OH)2D3 from recombinant human VDR ligand binding domain
T1 sequence (P11473 whole entry): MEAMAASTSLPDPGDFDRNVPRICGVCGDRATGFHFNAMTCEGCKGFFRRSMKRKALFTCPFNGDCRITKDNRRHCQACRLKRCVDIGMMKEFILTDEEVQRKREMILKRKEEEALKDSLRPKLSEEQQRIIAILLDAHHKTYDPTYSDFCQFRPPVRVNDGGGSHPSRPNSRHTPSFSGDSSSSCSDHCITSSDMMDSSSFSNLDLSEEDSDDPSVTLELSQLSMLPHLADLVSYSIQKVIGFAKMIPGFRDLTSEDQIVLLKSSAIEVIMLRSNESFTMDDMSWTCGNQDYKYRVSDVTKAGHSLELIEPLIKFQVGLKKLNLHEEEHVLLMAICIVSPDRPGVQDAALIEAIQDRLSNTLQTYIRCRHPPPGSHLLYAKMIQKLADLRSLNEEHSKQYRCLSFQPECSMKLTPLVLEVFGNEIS

[5] = biological target: T2, Vitamin D3 receptor (Homo sapiens) (UniProt P11473); assay: Displacement of [3H]-1,25(OH)2D3 from recombinant human VDR ligand binding domain relative to 1,25(OH)2D3
T2 sequence (whole entry): T1 sequence (P11473 whole entry)

Vitamin D3 receptor [6] = biological target: T1, Vitamin D3 receptor; assay: Agonist activity at VDR in human HEK293 cells assessed as transcriptional activity after 16 to 24 hrs by luciferase reporter gene assay; assay type: cell-based
[7] = biological target: T2, Vitamin D3 receptor (Homo sapiens); assay: Partial agonist activity at VDR in human HEK293 cells assessed as transcriptional activity after 16 to 24 hrs by luciferase reporter gene assay relative to 1,25(OH)2D3; assay type: cell-based
Vitamin D3 receptor [8] = biological target: T1, Vitamin D3 receptor; assay: (§1) Agonist activity at VDR (unknown origin) expressed in HEK293 cells cotransfected with RXRalpha assessed as RXRalpha recruitment by two-hybrid assay; assay type: cell-based
Vitamin D3 receptor [9] = biological target: T1, Vitamin D3 receptor; assay: Agonist activity at VDR (unknown origin) expressed in HEK293 cells cotransfected with SRC1 assessed as SRC1 recruitment by two-hybrid assay; assay type: cell-based
Vitamin D3 receptor [10] = biological target: T1, Vitamin D3 receptor; assay: Agonist activity at VDR (unknown origin) expressed in HEK293 cells cotransfected with NCoR assessed as decrease in NCoR recruitment by two-hybrid assay; assay type: cell-based
[11] = biological target: T2, Vitamin D3 receptor (Homo sapiens); assay: as §1; assay type: cell-based

SMILES	Drug uptake [1] [%]	Drug uptake [2] [%]	metabolised at 24 h, 1 µM [3] [%]	IC50 (Vitamin D3 receptor [4]) [nM]	Activity [5] [%]	EC50 (Vitamin D3 receptor [6]) [nM]	Efficacy [7] [%]	EC50 (Vitamin D3 receptor [8]) [nM]	EC50 (Vitamin D3 receptor [9]) [nM]	IC50 (Vitamin D3 receptor [10]) [nM]	Activity [11]
C=C1[C@H](O)CC(=C/C=C2\CCC[C@]3(C)[C@@H](C#CC#C[C@H](O)CC45CC6CC(CC(C6)C4)C5)CC[C@@H]23)C[C@H]1O	–	–	–	35	1	30	59	–	–	–	Active
C=C1/C(=C\C=C2/CCC[C@]3(C)[C@@H]([C@H](C)CCCC(C)(C)O)CC[C@@H]23)C[C@@H](O)C[C@@H]1O [CALCITRIOL]	2.5	2.7	25	–	–	–	–	–	–	–	–
C=C1[C@H](O)CC(=C/C=C2\CCC[C@]3(C)[C@@H](C#CC#C[C@@H](O)CC45CC6CC(CC(C6)C4)C5)CC[C@@H]23)C[C@H]1O	–	–	–	35	1	20	–	–	–	–	Active

Continued, values first:

Drug uptake [1] [%]	Drug uptake [2] [%]	metabolised at 24 h, 1 µM [3] [%]	IC50 (Vitamin D3 receptor [4]) [nM]	Activity [5] [%]	EC50 (Vitamin D3 receptor [6]) [nM]	Efficacy [7] [%]	EC50 (Vitamin D3 receptor [8]) [nM]	EC50 (Vitamin D3 receptor [9]) [nM]	IC50 (Vitamin D3 receptor [10]) [nM]	Activity [11]	SMILES
5.9	7.7	8	5	7	1.5	86	0.7	4.5	0.09	–	C=C1[C@H](O)CC(=C/C=C2\CCC[C@]3(C)[C@@H](C#CC#C[C@@H](O)C45CC6CC(CC(C6)C4)C5)CC[C@@H]23)C[C@H]1O
–	–	–	12.5	3	7	41	–	–	–	–	C=C1[C@H](O)CC(=C/C=C2\CCC[C@]3(C)[C@@H](C#CC#C[C@H](O)C45CC6CC(CC(C6)C4)C5)CC[C@@H]23)C[C@H]1O
